In patent US20250090510A1, “eIF4G1-eIF1 INHIBITORS AND USE THEREOF” (YEDA RESEARCH AND DEVELOPMENT CO. LTD., priority 2022, published 2025):

Key:
[1] = tested on: 5′UTR length-dependent translation in HEK293T cells; assay: Firefly luciferase reporters with long (354 nt) and short (111 nt) 5′UTR; format: cell-based, human; details: 5 μM, 16 h
Experimental: (§1) FIGS. 5A-D: 5′UTR length-dependent translational control by the eIF1-eIF4G1. […] The asterisks denote a statistically significant difference. **p<0.01, ****p<0.0001. (5B) A scheme of the firefly reporter genes that are driven by long (354 nt) and short (111 nt) 5′ UTR length, is shown on the top. HEK293T cells were transfected with these reporter genes. After 4 h, transfected cells were treated with DMSO, i14G1-10 (5 μM), or i14G1-12 (5 μM) for 16 h and analyzed for firefly luciferase activities. The graph presents the normalized luminescence activity of the long 5′UTR and the short 5′UTR reporters in the indicated treatments. The data are shown as mean±SEM, n=6. The asterisks denote statistically significant difference compared to DMSO, according to Student's t-tests (one-tailed, paired). *p<0.05; **p<0.01. (5C-D) HEK293T cells were treated with DMSO, i14G1-10, and i14G1-12 for 3 h, lysed, and subjected to sucrose gradient sedimentation and fractionation. Fractions were pooled according to polysome profile as free (grey), light (blue), and heavy (yellow) polysomal fractions. cDNA was prepared from each fraction pool and real-time PCR was performed for the indicated TISU genes (5C) or histone genes (5D). The data are shown as mean±SEM, n=3. The asterisks denote statistically significant difference compared to DMSO, according to Student's t-tests (one-tailed, paired), *p<0.05; **p<0.01.
Since both eIF1 and eIF4G1 are important for scanning, the relationship between the translational effects of the inhibitors and the 5′UTR length was examined. […] To investigate further the link between the effect of the drug and 5′UTR length, we used two firefly luciferase reporters we used that differ only in their 5′UTR length: a short 5′UTR with 111 nucleotides and a long 5′UTR with 354 nucleotides. […] These findings confirm the inhibitory effect of these compounds on the scanning promoting activity of the eIF1-eIF4G1 complex.

[2] = target: rabbit reticulocyte lysate; assay: In-vitro translation of capped firefly luciferase mRNA; format: biochemical; details: 10 minutes pre-incubation, 90 minutes at 30° C.
[3] = tested on: parental NIH3T3 cells; assay: Polysome profiling and real-time PCR in parental cells; format: cell-based, mouse; details: i14G1-10 30 μM, i14G1-12 15 μM, 3 h
[4] = tested on: HEK293T cells; assay: Polysome fractionation and real-time PCR of specific genes; format: cell-based, human; details: 3 h
Experimental: as §1
FIGS. 7A-E: (7A) Ribo-seq and TI-seq read tracks of representative stress response-associated mRNAs (DDIT3 and GADD34) in DMSO (black), i14G1-10 (red), and i14G1-12 (green) samples. The red triangle represents 5′UTR TIS codons and the green denotes annotated TIS. Black arrows show the translation direction. […] The graphs in the lower panel are the quantification of ATF4's uORF1′, uORF1, uORF2, and main-ORF reads of the Ribo-seq data. The asterisks denote statistically significant difference compared to DMSO, according to Student's t-tests (one-tailed, paired). **p<0.01, ***p<0.001, ****p<0.0001. (7C) HEK293T cells were treated with DMSO, i14G1-10, and i14G1-12 for 3 h, lysed and subjected to sucrose gradient sedimentation and fractionation. Fractions of the free (grey), light (blue), and heavy (yellow) were pooled. cDNA was prepared from each fraction pool and real-time PCR was performed for the indicated ISR genes. The data are shown as mean±SEM, n=3. The asterisks denote statistically significant difference compared to DMSO, according to Student's t-tests (one-tailed, paired). *p<0.05; **p<0.01. (7D) HEK293T cells were treated with DMSO, i14G1-10, and i14G1-12 for 3 h. The respective cell lysates were subjected to western blot to check the protein levels of ATF3 and ATF4 (left). The graph represents the relative chemiluminescence signal intensity (mean±SEM) for ATF4 and AT3 normalized to GAPDH protein levels of three biological replicates. The asterisks denote statistically significant difference compared to DMSO, according to Student's t-tests (one-tailed, paired), *p<0.05. (7E) Control MEFs and eIF2α S52A mutant MEFs were treated with DMSO (vehicle control), and sub-cytotoxic concentrations of i14G1-10 (30 μM) and i14G1-12 (15 μM) for 3h. Cell lysates were then subjected to sucrose gradient sedimentation to obtain polysome profiles.
Polysome profile and real-time PCR. HEK293T cells were cultured in 10 cm plate up to 80% confluence, followed by DMSO, i14G1-10 (20 μM), and i14G1-12 (10 μM) treatment. After 3 h, the cells were incubated with 100 μg/ml cycloheximide for 5 minutes, washed with cold polysome buffer (20 mM Tris pH8, 140 mM KCl, 5 mM MgCl2, and 100 μg/ml cycloheximide). Cells were collected in 500-μl polysome buffer supplemented with 0.5% Triton, 0.5% DOC, 1.5 mM DTT, 150 units RNase inhibitor, and 5-μl protease inhibitor cocktail. Lysed samples were centrifuged at 12000 RPM, 5 minutes at 4° C. The cleared lysate was loaded onto sucrose density gradient (10-50%) and centrifuged at 38000 RPM for 105 minutes at 4° C. […]

| SMILES | luciferase reporter expression driven by the longer 5′UTR (354 nucleotides) [1] | luciferase reporter expression driven by the shorter 5′UTR (111 nucleotides) [1] | IC50 [2] | overall translation, polysome to monosome ratio (P/M) [3] | translation of ISR genes in polysome fractions [3] | translation of ACTB mRNA (control) in polysome fractions [4] | translation of eight histone genes in polysome fractions [4] | translation of seven TISU genes in polysome fractions [4] | translation of stress-response genes in Free, Light and Heavy polysome fractions [4] |
| --- | --- | --- | --- | --- | --- | --- | --- | --- | --- |
| Cn1ccnc1S/C(=C/C=C(C#N)C#N)c1ccc(Cl)cc1 [i14G1-12] | significantly decreased | did not affect | 4.14 µM | significant reduction in translation efficiency | upregulated | decreased translation of the ACTB mRNA | general trend of upregulation | either unaffected or slightly upregulated | all found to be upregulated |
| O=C(/C=C/Sc1ccc(C(F)(F)F)cn1)c1ccccc1 [i14G1-10] | significantly decreased | did not affect | 5.44 µM | significant reduction in translation efficiency | upregulated | decreased translation of the ACTB mRNA | general trend of upregulation | either unaffected or slightly upregulated | all found to be upregulated |
